Laboratory results taken from patent publication US7846973B2, “Chemical process and new crystalline form” (Theravance, Inc., priority 2004, dated 2010).
Counter-ions that a name gives are not always drawn.

Experiment: Relative thermodynamic stability of crystalline forms of compound (Ia) monohydrochloride
Assay type: physicochemical
Settings: Form 2 versus Form 1 (form of WO 2004/106279)
Description: Such methods can be used to provide seeds of Form 2 material.

thermodynamic stability of Form 2 crystals compared with Form 1 crystals: more thermodynamically stable
Structure (SMILES): O=CNc1cc([C@@H](O)CNCCc2ccc(NC[C@H](O)c3ccccc3)cc2)ccc1O [Form 2, N-{2-[4-((R)-2-hydroxy-2-phenylethylamino)phenyl]ethyl}-(R)-2-hydroxy-2-(3-formamido-4-hydroxyphenyl)ethylamine monohydrochloride]
